Reference: patent US11266632B1, “Maslinic and oleanolic acids derivatives for treating SARS-CoV-2 infection” (priority 2021, dated 2022)
Read-outs that look alike come from different tables or passages of the source.

Tests used:
[1] = system: SARS-CoV-2 "NRC-03-nhCoV" virus; assay: Inhibitory concentration 50 (IC50) determination, virus-induced cytopathic effect in Vero-E6 cells, crystal violet; format: cell-based; settings: for Selectivity Index (CC50/IC50): CC50 Vero E6 / IC50 NRC-03-nhCoV
[2] = system: MERS-CoV virus "NRCE-HKU270"; format: cell-based; settings: Vero E6 cells
[3] = system: NRC-03-nhCoV; assay: Mode of antiviral action, plaque infectivity reduction assay in Vero-E6 cells; format: cell-based, SARS-CoV-2
Experimental: To investigate whether the tested compound with high selectivity index and antiviral activity against NRC-03-nhCoV affect (a) viral adsorption, (b) viral replication or (c) viricidal effect, a plaque infectivity reduction assay was performed according to the following protocols:
The viral adsorption mechanism was assayed according to a protocol by Zhang et al. with modifications. Vero-E6 cells were cultivated in a 6-well plate (10^5 cells/mL) for 24 h at 37° C. Each tested drug was applied in 500 μL of medium without supplements and co-incubated with the cells for 2 h at 4° C. The non-absorbed drug in the applied inocula was removed by washing cells three times with 1×PBS. The NRC-03-nhCoV was diluted to a countable range “10-4” and co-incubated with the pretreated cells. About 1 h post-incubation, the inocula were removed and 3 mL of agarose overlay (1:1 mixture of warmed 2× plaque media and a stock solution of heated 2% agarose) were added. The plates were kept at room temperature to solidify and then incubated at 37° C. to allow the formation of viral plaques. […]
The impact of the tested drug on viral replication was determined as previously described. […] The analyzed compound was then applied in varying concentrations to infected cells for another 1 h contact time at 37° C. […]
The virucidal mechanism was analyzed. […]

[4] = Severe acute respiratory syndrome coronavirus 2, Vero C1008, 72 h, NRC-03-nhCoV in Vero E6, 72 h, reduction of CPE by 50%, read-out: IC50
[5] = Severe acute respiratory syndrome coronavirus 2, Vero C1008, 72 h

Row | Compound | Selectivity Index (CC50/IC50) [1] | IC50 [1, 4] [µM] | further results
1 | C#CCOC(=O)[C@]12CCC(C)(C)CC1C1=CCC3[C@@]4(C)CC[C@H](O)C(C)(C)C4CC[C@@]3(C)[C@]1(C)CC2 (stereo partly drawn) [Compound 3, Propargyl-(3β)-3-hydroxyolean-12-en-28-oate] | 2.32 | – | –
2 | C#CCOC(=O)[C@]12CCC(C)(C)CC1C1=CCC3[C@@]4(C)C[C@@H](OCC#C)[C@H](OCC#C)C(C)(C)C4CC[C@@]3(C)[C@]1(C)CC2 (stereo partly drawn) [Compound 7, Propargyl-(2α,3β)-2,3-bis(propargyloxy)-olean-12-en-28-oate] | 0.9 | 108 | –
3 | CC1(C)CC[C@]2(C(=O)OCc3cn(-c4ccc(Cl)cc4)nn3)CC[C@]3(C)C(=CCC4[C@@]5(C)C[C@@H](OCc6cn(-c7ccc(Cl)cc7)nn6)[C@H](O)C(C)(C)C5CC[C@]43C)C2C1 (stereo partly drawn) [Compound 12, (1-(4-Chlorophenyl)-1H-1,2,3-triazol-4-yl)methyl-(2α,3β)-2-((1-(4-chlorophenyl)-1H-1,2,3-triazol-4-yl)methoxy)-3-hydroxyolean-12-en-28-oate] | 4.42 | 116 | –
4 | COc1ccc(-c2cc(COC(=O)[C@]34CCC(C)(C)CC3C3=CCC5[C@@]6(C)CC[C@H](O)C(C)(C)C6CC[C@@]5(C)[C@]3(C)CC4)on2)cc1 (stereo partly drawn) [Compound 15, (3-(4-methoxyphenyl)isoxazol-5-yl) methyl-(3β)-3-hydroxyolean-12-en-28-oate] | 0.79 | – | –
5 | CC1(C)CC[C@]2(C(=O)OCc3cc(-c4ccc(Cl)cc4)no3)CC[C@]3(C)C(=CCC4[C@@]5(C)C[C@@H](O)[C@H](O)C(C)(C)C5CC[C@]43C)C2C1 (stereo partly drawn) [Compound 17, (3-(4-chlorophenyl)isoxazol-5-yl) methyl-(2α,3β)-2,3-dihydroxyolean-12-en-28-oate] | – | 4.12 | IC50 ([1]; NRC-03-nhCoV in Vero E6, 72 h, reduction of CPE by 50%, read-out: IC50): 4.12 to 99.9 µM; antiviral activity against NRCE-HKU270 [2]: promising antiviral activity against NRCE-HKU270 at micromolar concentrations; interference with viral adsorption and replication [3]: efficiently impair viral replication and adsorption; virucidal effect [3]: virucidal effect
6 | COc1ccc(-n2cc(COC(=O)[C@]34CCC(C)(C)CC3C3=CCC5[C@@]6(C)C[C@@H](O)[C@H](OCc7cn(-c8ccc(OC)cc8)nn7)C(C)(C)C6CC[C@@]5(C)[C@]3(C)CC4)nn2)cc1 (stereo partly drawn) [Compound 13, (1-(4-Methoxyphenyl)-1H-1,2,3-triazol-4-yl)methyl-(2α,3β)-2-hydroxy-3-((1-(4-methoxyphenyl)-1H-1,2,3-triazol-4-yl)methoxy)-olean-12-en-28-oate] | 2.24 | 159 | –
7 | CC1(C)CC[C@]2(C(=O)O)CC[C@]3(C)C(=CC[C@@H]4[C@@]5(C)CC[C@H](O)C(C)(C)[C@@H]5CC[C@]43C)[C@@H]2C1 [Compound 1, Oleanic acid] | 0.39 | – | IC50 [1, 5]: 476 µM
8 | COc1ccc(-c2cc(COC(=O)[C@]34CCC(C)(C)CC3C3=CCC5[C@@]6(C)C[C@@H](O)[C@H](O)C(C)(C)C6CC[C@@]5(C)[C@]3(C)CC4)on2)cc1 (stereo partly drawn) [Compound 16, (3-(4-methoxyphenyl)isoxazol-5-yl) methyl-(2α,3β)-2,3-dihydroxyolean-12-en-28-oate] | 1.48 | – | –
9 | C#CCOC(=O)[C@]12CCC(C)(C)CC1C1=CCC3[C@@]4(C)C[C@@H](O)[C@H](O)C(C)(C)C4CC[C@@]3(C)[C@]1(C)CC2 (stereo partly drawn) [Compound 4, Propargyl-(2α,3β)-2,3-dihydroxyolean-12-en-28-oate] | 0.67 | – | IC50 [1, 5]: 236 µM
10 | COc1ccc(-n2cc(COC(=O)[C@]34CCC(C)(C)CC3C3=CCC5[C@@]6(C)C[C@@H](OCc7cn(-c8ccc(OC)cc8)nn7)[C@H](OCc7cn(-c8ccc(OC)cc8)nn7)C(C)(C)C6CC[C@@]5(C)[C@]3(C)CC4)nn2)cc1 (stereo partly drawn) [Compound 14, (1-(4-Methoxyphenyl)-1H-1,2,3-triazol-4-yl)methyl-(2α,3β)-2,3-bis((1-(4-methoxyphenyl)-1H-l,2,3-triazol-4-yl)methoxy)-olean-12-en-28-oate] | 2.96 | 137 | –
11 | Cc1cccc(-n2nncc2COC(=O)[C@]23CCC(C)(C)CC2C2=CCC4[C@@]5(C)CC[C@H](O)C(C)(C)C5CC[C@@]4(C)[C@]2(C)CC3)c1 (stereo partly drawn) [Compound 8, (1-(3-mcthylphenyl)-1H-1,2,3-triazol-5-yl)methyl-(3β)-3-hydroxyolean-12-en-28-oate] | 0.98 | 174 | –
12 | C#CCOC(=O)[C@]12CCC(C)(C)CC1C1=CCC3[C@@]4(C)C[C@@H](OCC#C)[C@H](O)C(C)(C)C4CC[C@@]3(C)[C@]1(C)CC2 (stereo partly drawn) [Compound 5, Propargyl-(2α)-2-(propargyloxy)-(3β)-3-hydroxy-olean-12-en-28-oate] | 1.06 | 85.2 | –
13 | Cc1cccc(-n2cc(COC(=O)[C@]34CCC(C)(C)CC3C3=CCC5[C@@]6(C)CC[C@H](O)C(C)(C)C6CC[C@@]5(C)[C@]3(C)CC4)nn2)c1 (stereo partly drawn) [Compound 10, (1-(3-methylphenyl)-1H-1,2,3-triazol-4-yl)methyl-(3β)-3-hydroxyolean-12-en-28-oate] | 3.68 | – | –
14 | CC1(C)CC[C@]2(C(=O)OCc3cn(-c4ccccc4)nn3)CC[C@]3(C)C(=CCC4[C@@]5(C)C[C@@H](O)[C@H](O)C(C)(C)C5CC[C@]43C)C2C1 (stereo partly drawn) [Compound 11, (1-Phenyl-1H-1,2,3-triazol-4-yl)methyl-(2α,3β)-2,3-dihydroxyolean-12-en-28-oate] | 1.62 | 135 | –
15 | CC1(C)CC[C@]2(C(=O)O)CC[C@]3(C)C(=CC[C@@H]4[C@@]5(C)C[C@@H](O)[C@H](O)C(C)(C)[C@@H]5CC[C@]43C)[C@@H]2C1 [Compound 2, Maslinic acid] | 0.97 | – | IC50 [1, 5]: 99.9 µM
16 | C#CCOC(=O)[C@]12CCC(C)(C)CC1C1=CCC3[C@@]4(C)C[C@@H](O)[C@H](OCC#C)C(C)(C)C4CC[C@@]3(C)[C@]1(C)CC2 (stereo partly drawn) [Compound 6, Propargyl-(3α)-3-(propargyloxy)-(2β)-2-hydroxy-olean-12-en-28-oate] | 1.55 | 135 | –
